Test results as given in patent publication US20040063659A1, “Novel 2'-halomethylidene,2'-ethenylidene and 2'-ethynyl cytidine, uridine and guanosine derivatives” (Merrell Pharmaceuticals Inc., priority 1988, published 2004).
Values after ≈ are worked out from the molar mass of the structure shown.

Tested on: HeLa cells
Test: Inhibitory effects of compounds on HeLa cell proliferation in vitro
Type: cell-based
Settings: Homo sapiens; exponentially growing HeLa cells, incubated with test compound for 96 hours; concentration at 50% inhibition of cell growth
Protocol: The inhibitory effect of various compounds of formula (1) on HeLa cell proliferation in vitro was determined according to the method described by Sunkara et al. [J. Natl Cancer Instit. 70, 505-509 (1983)]. Exponentially growing HeLa cells were incubated in the presence or absence of various concentrations of test compounds for 96 hours. IC50 values were calculated which represent the test compound concentration at 50% inhibition of cell growth.

Row | IC50 [µg/mL] | SMILES
1 | 0.01 to 0.015 (≈ 0.0389 to 0.0583 µM) | Nc1ccn([C@@H]2O[C@H](CO)[C@@H](O)/C2=C\F)c(=O)n1 [Compound A, (E)-2′-deoxy-2′-fluoromethylidene cytidine]
2 | 1 to 5 (≈ 3.89 to 19.4 µM) | Nc1ccn([C@@H]2O[C@H](CO)[C@@H](O)/C2=C/F)c(=O)n1 [Compound B, (Z)-2′-deoxy-2′-fluoromethylidene cytidine]
